Experimental findings from ChEMBL document CHEMBL5532662, “Exploiting the Carboxylate-Binding Pocket of β-Lactamase Enzymes Using a Focused DNA-Encoded Chemical Library” (J Med Chem, 2024) are described below.

Data set [1] concerns the target T1, Metallo-beta-lactamase type 2 (Bacteria, UniProt C7C422). As to the kind of experiment: biochemical.
Data set [2] in a line: Binding affinity to his-tagged OXA-48 (unknown origin) expressed in Escherichia coli BL21 (DE3) cells assessed as inhibition constant using nitrocefin as substrate by Morrison equation based analysis. Further details: species or system Bacteria; call rule not given here.
For data set [3], the system named is Escherichia coli. Briefly: Synergistic antimicrobial activity against Escherichia coli expressing […] assessed as imipenem MIC at 128 ug/ml incubated for 18 hrs by microdilution method (reference value: 8 ug/ml). Format: functional. Particulars: dose 128 µg/ml. (Broth dilution looks for growth in wells or tubes with falling amounts of substance.)
Data set [4] deals with Escherichia coli. As to the kind of experiment: Synergistic antimicrobial activity against Escherichia coli expressing […] assessed as imipenem MIC at 64 ug/ml incubated for 18 hrs by microdilution method (reference value: 8 ug/ml). Format: functional. Particulars: dose 64 µg/ml.
For data set [5], the system named is Escherichia coli. Briefly: Synergistic antimicrobial activity against Escherichia coli expressing […] assessed as imipenem MIC at 32 ug/ml incubated for 18 hrs by microdilution method (reference value: 8 ug/ml). The data set is classed as functional. As to conditions: dose 32 µg/ml.
Data set [6] has as its system Escherichia coli. Briefly: Synergistic antimicrobial activity against Escherichia coli expressing […] assessed as imipenem MIC at 16 ug/ml incubated for 18 hrs by microdilution method (reference value: 8 ug/ml). Format: functional. As to conditions: dose 16 µg/ml.
Data set [7] is described as follows: Drug accumulation in Escherichia coli assessed per 10^12 CFU incubated for 10 mins under shaking condition by LC-MS/MS analysis. The data set is classed as ADME.
The target of data set [8] is T1, Metallo-beta-lactamase type 2. Briefly: biochemical. This is another data set of the same source.
Data set [9] concerns Escherichia coli. As to the kind of experiment: Synergistic antimicrobial activity against Escherichia coli expressing […] assessed as imipenem MIC at 8 ug/ml incubated for 18 hrs by microdilution method (reference value: 8 ug/ml). Format: functional. As to conditions: dose 8 µg/ml.

T1 sequence (C7C422 whole entry): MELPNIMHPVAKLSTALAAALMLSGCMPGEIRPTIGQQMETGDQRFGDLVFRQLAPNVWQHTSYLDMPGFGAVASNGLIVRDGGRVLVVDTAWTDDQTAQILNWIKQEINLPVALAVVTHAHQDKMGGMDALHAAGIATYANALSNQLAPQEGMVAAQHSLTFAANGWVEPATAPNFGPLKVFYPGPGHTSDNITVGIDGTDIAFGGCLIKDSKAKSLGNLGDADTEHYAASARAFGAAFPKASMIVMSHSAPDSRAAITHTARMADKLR

By Ki is commonly meant a dissociation constant, usually derived from enzyme kinetics or from competition with a known ligand. In [1], `CC(=O)NCc1cccc(NCc2cccc(-c3ccc(C(=O)O)c(O)c3)c2)c1` yielded an inhibitory constant (Ki) of over 100 µM.
With `Nc1cccc(CCCNCc2ccccc2-c2cccc(C(=O)O)c2)c1`, the Ki in data set [2] came to 130 µM.
The term MIC denotes the lowest concentration found to suppress growth. Turning to `NCc1cccc(NCc2cc(O)cc(-c3ccc(C(=O)O)c(O)c3)c2)c1`, the MIC in the data set with Escherichia coli [3], in the data set on Escherichia coli [4], with Escherichia coli [5] and in the data set with Escherichia coli [6] was 4 µg/mL each time.
Consider `CNCc1cccc(NCc2ccc(-c3ccc(C(=O)O)c(O)c3)o2)c1`, for which the MIC with Escherichia coli [3], in the data set with Escherichia coli [4], with Escherichia coli [5] and in the data set with Escherichia coli [6] was 4 µg/mL each time. Moreover, in [7], the Drug uptake result was “Not Active”.
Compound `Cc1cccc(NCc2cccc(-c3ccc(C(=O)O)c(O)c3)c2)c1` displayed a Ki in data set [1] of over 100 µM.
As to `NCc1cccc(NCc2ccc(-c3ccc(C(=O)O)c(O)c3)s2)c1`, the Ki in [1] came out at 1.5 µM. For the same compound, the MIC in the data set with Escherichia coli [3], in the data set with Escherichia coli [4], with Escherichia coli [5] and in the data set on Escherichia coli [6] was 4 µg/mL throughout.
As to `NCc1cccc(NCc2ccnc(-c3ccc(C(=O)O)c(O)c3)c2)c1`, the MIC in the data set with Escherichia coli [3] turned out to be 4 µg/mL; in the data set on Escherichia coli [4], 4 µg/mL; with Escherichia coli [5], 8 µg/mL; with Escherichia coli [6], 8 µg/mL.
For `CNCc1ccc(-c2ccc(C(=O)O)c(O)c2)o1`, the Ki in data set [8] was 500 µM.
In turn, `NCc1cccc(NC(=O)c2cccc(-c3ccc(C(=O)O)c(O)c3)c2)c1` returned a Ki in data set [1] of 30 µM. Moreover, the MIC in the data set on Escherichia coli [3], in the data set with Escherichia coli [4], in the data set on Escherichia coli [5] and in the data set on Escherichia coli [6] was 8 µg/mL in each case.
Regarding `COc1cc(-c2cc(O)cc(C(=O)O)c2)ccc1C(=O)O`, the Ki in [2] was 0.6 µM.
On to `CNCc1cccc(NCc2ccc(-c3cccc(C(=O)O)c3O)o2)c1`, for which the MIC was 4 µg/mL with Escherichia coli [3], 8 µg/mL with Escherichia coli [4], 8 µg/mL with Escherichia coli [5] and 8 µg/mL in the data set with Escherichia coli [6].
On to `NCc1cc(O)cc(NCc2cccc(-c3ccc(C(=O)O)c(O)c3)c2)c1`, for which the MIC with Escherichia coli [3], with Escherichia coli [4], in the data set on Escherichia coli [5] and with Escherichia coli [6] was 4 µg/mL each time.
`NCc1cccc(N2Cc3ccc(-c4ccc(C(=O)O)c(O)c4)cc3C2)c1` came in with a Ki in data set [1] of 50 µM. Further, the MIC in the data set with Escherichia coli [3], in the data set with Escherichia coli [4], in the data set with Escherichia coli [5] and in the data set with Escherichia coli [6] was 8 µg/mL each time.
In turn, `NCc1cccc(NCc2cc(C(=O)O)cc(-c3ccc(C(=O)O)c(O)c3)c2)c1` registered a Ki in data set [1] of 140 µM.
Regarding `Cc1cc(CNc2cccc(CN)c2)cc(-c2ccc(C(=O)O)c(O)c2)c1`, in data set [1], affinity was put at a Ki of 0.5 µM. Moreover, the MIC in the data set with Escherichia coli [9], in the data set on Escherichia coli [5] and in the data set on Escherichia coli [6] was 4 µg/mL each time.
As to `CN(C)C(=O)C1CCN(c2ccc(CNCc3ccccc3-c3cccc(C(=O)O)c3)cc2C#N)CC1`, in data set [2], the Ki is 8 µM.
Take `CNC(=O)CCc1ccc(CNCc2cccc(NCc3ccc(-c4ccc(C(=O)O)c(O)c4)o3)c2)cc1`: the MIC with Escherichia coli [3], in the data set with Escherichia coli [4], in the data set on Escherichia coli [5] and in the data set with Escherichia coli [6] was 8 µg/mL throughout.
Consider `NCc1cccc(NCc2cccc(-c3ccc(C(=O)O)c(O)c3)n2)c1`, for which the MIC in the data set on Escherichia coli [3] was 2 µg/mL; in the data set on Escherichia coli [4], 4 µg/mL; in the data set with Escherichia coli [5], 4 µg/mL; with Escherichia coli [6], 4 µg/mL. For the same compound, the Drug uptake result in data set [7] was “Active”.
Consider `NCc1cccc(NCc2ccc(-c3ccc(C(=O)O)c(O)c3)o2)c1`, for which the minimal inhibitory concentration (MIC) with Escherichia coli [3], with Escherichia coli [4], with Escherichia coli [5] and with Escherichia coli [6] was 4 µg/mL throughout.
Consider `NCc1cccc(NCc2cc(-c3ccc(C(=O)O)c(O)c3)ccn2)c1`, for which the MIC in the data set on Escherichia coli [3] was 4 µg/mL; with Escherichia coli [4] it was 4 µg/mL; in the data set with Escherichia coli [5], 8 µg/mL; in the data set with Escherichia coli [6], 8 µg/mL.
Turning to `CNCc1cccc(NCc2cccc(-c3ccc(C(=O)O)c(O)c3)c2)c1`, the MIC with Escherichia coli [3], with Escherichia coli [4], in the data set on Escherichia coli [5] and in the data set on Escherichia coli [6] was 4 µg/mL each time.
For `NCc1cccc(NCc2cncc(-c3ccc(C(=O)O)c(O)c3)c2)c1`, the MIC in the data set on Escherichia coli [3] is 4 µg/mL; in the data set with Escherichia coli [4], 8 µg/mL; in the data set on Escherichia coli [5], 8 µg/mL; in the data set on Escherichia coli [6] it was 8 µg/mL.
In turn, `NCc1cccc(NCc2cccc(-c3ccc(C(=O)O)c(O)c3)c2)c1` gave a Ki in [1] of 0.6 µM. The MIC in the data set with Escherichia coli [9], in the data set on Escherichia coli [4], in the data set with Escherichia coli [5] and in the data set with Escherichia coli [6] was 4 µg/mL throughout. Further, the Drug uptake entry in [7] is “Active”.
Turning to `NCc1cccc(NCc2ccc(-c3cccc(C(=O)O)c3O)o2)c1`, the MIC with Escherichia coli [3] stood at 4 µg/mL; in the data set with Escherichia coli [4], 4 µg/mL; with Escherichia coli [5] it was 4 µg/mL; in the data set on Escherichia coli [6], 8 µg/mL.
In [1], `CNCc1cccc(NCc2ccc(-c3ccc(C(=O)O)cc3)o2)c1` showed a Ki of 9 µM.
